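How tested: cells in 96-well plates exposed to compound for 48 hours at five concentrations. Abbreviation: GI50, concentration required for 50% inhibition of growth.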 Activity calls are given as the source filed them. No stated cut-off is given here; in the data, active = GI50 up to about 1.1 µM and inactive = higher.
Legend:
Test in all cases: NCI anticancer screen, dose series, 48 h
UACC-257 = system: UACC-257
SK-OV-3 = system: SK-OV-3
TK-10 = system: TK-10
A549 = system: A549
SNB-75 = system: SNB-75
RPMI-8226 = system: RPMI-8226
IGROV-1 = system: IGROV-1
HCT-15 = system: HCT-15
KM12 = system: KM12
SNB-78 = system: SNB-78
Malme-3M = system: Malme-3M
NCI-H522 = system: NCI-H522
UO-31 = system: UO-31
ACHN = system: ACHN
SW-620 = system: SW-620
SK-MEL-2 = system: SK-MEL-2
MDA-MB-231 = system: MDA-MB-231
Hs-578T = system: Hs-578T
DU-145 = system: DU-145
MDA-N = system: MDA-N

Row | Structure (SMILES) | GI50 (UACC-257) | GI50 (SK-OV-3) | GI50 (TK-10) | GI50 (A549) | GI50 (SNB-75) | GI50 (RPMI-8226) | GI50 (IGROV-1) | GI50 (HCT-15) [µM] | GI50 (KM12) | GI50 (SNB-78) | GI50 (Malme-3M) | GI50 (NCI-H522) | GI50 (UO-31) | GI50 (ACHN) | GI50 (SW-620) | GI50 (SK-MEL-2) | GI50 (MDA-MB-231) | GI50 (Hs-578T) | GI50 (DU-145) | GI50 (MDA-N)
1 | OCC1OC2c3ccccc3COC2C1OCc1ccccc1 (configuration not stated) | 37 µM (inactive) | > 100 µM (inactive) | > 100 µM (inactive) | > 100 µM (inactive) | > 100 µM (inactive) | > 100 µM (inactive) | > 100 µM (inactive) | > 100 | > 100 µM (inactive) | > 100 µM (inactive) | > 100 µM (inactive) | 70.1 µM (inactive) | > 100 µM (inactive) | > 100 µM (inactive) | > 100 µM (inactive) | > 100 µM (inactive) | – | – | – | –
2 | C/C1=C/C2OC(=O)C3(C)C2C(CC2(C)OC1=CC2=O)OC3(O)C(C)C (configuration not stated) | 26.9 µM (inactive) | 46 µM (inactive) | 41.5 µM (inactive) | > 56 µM (inactive) | > 61.1 µM (inactive) | 21.8 µM (inactive) | 35.3 µM (inactive) | 20.3 | 27 µM (inactive) | 35.2 µM (inactive) | 33.5 µM (inactive) | 14.8 µM (inactive) | 84.1 µM (inactive) | 33.9 µM (inactive) | 23.7 µM (inactive) | 29.4 µM (inactive) | > 100 µM (inactive) | 59 µM (inactive) | 59.8 µM (inactive) | 53.7 µM (inactive)
3 | O=C(NCCCC/N=c1/cccccc1NCCCCNC(=O)OCc1ccccc1)OCc1ccccc1 | 15.2 µM (inactive) | 20.5 µM (inactive) | 19.2 µM (inactive) | 26.5 µM (inactive) | 18.7 µM (inactive) | 13 µM (inactive) | 20.9 µM (inactive) | 8.05 | 17.9 µM (inactive) | 24.6 µM (inactive) | 20.4 µM (inactive) | 17.2 µM (inactive) | 7.43 µM (inactive) | 23.2 µM (inactive) | 17 µM (inactive) | 18.8 µM (inactive) | – | – | – | –

Source: ChEMBL document CHEMBL1201862, “PubChem BioAssay data set” (2004)
